Results taken from the supplement of paper PMC8882468.

Tests used:
Assay in all cases: CTG-3D luminescence at 96 h relative to day-0 seeding control (ratio to day 0); higher = more growth / less cytotoxicity; PDxO 3D drug screen, 96 h, CTG-3D normalised to day-0 seeding control.
HCI-002 = tested on: HCI-002 (organoid from a triple-negative breast cancer xenograft)
HCI-012 = tested on: HCI-012 (organoid from a breast cancer xenograft)
HCI-023 = tested on: HCI-023 (organoid from a triple-negative breast cancer xenograft)
HCI-024 = tested on: HCI-024 (organoid from a breast cancer xenograft)
HCI-025 = tested on: HCI-025 (organoid from a breast cancer xenograft)

Nc1ccn([C@@H]2O[C@H](CO)[C@@H](O)C2(F)F)c(=O)n1 [gemcitabine]
CTG-3D luminescence at 96 h
Conditions	12.5 pM	0.00025 µM	0.005 µM	0.1 µM	1 µM	10 µM	100 µM	625 fM
HCI-002, days in culture: 62	2.82	2.59	2.68	0.347	0.301	0.302	0.333	2.87
HCI-002, days in culture: 82	3.16	3.03	2.46	0.461	0.431	0.271	0.234	3.23
HCI-002, days in culture: 91	4.24	3.02	3.08	0.544	0.381	0.346	0.287	3.87
HCI-002, days in culture: 191	2.63	2.79	2.69	0.517	0.487	0.295	0.366	2.52
HCI-002, days in culture: 209	2.52	2.33	2.08	0.339	0.32	0.178	0.242	2.33
HCI-002, days in culture: 227	5.51	5.33	4.57	1.05	0.78	0.657	0.547	4.99
HCI-012, days in culture: 143	2.04	2.09	1.86	0.136	0.104	0.118	0.054	1.61
HCI-012, days in culture: 162	2.63	2.42	1.38	0.146	0.113	0.113	0.0256	2.7
HCI-012, days in culture: 201	2.68	1.42	1.5	0.0613	0.383	0.0794	0.0454	1.69
HCI-023, days in culture: 111	1.4	1.31	1.05	0.265	0.33	0.28	0.0585	1.43
HCI-023, days in culture: 128	1.62	1.78	1.15	0.416	0.26	0.399	0.0826	1.9
HCI-024, days in culture: 105	1.5	1.57	1.43	0.795	0.966	0.91	0.516	1.82
HCI-024, days in culture: 122	2.2	2.2	1.93	0.864	0.97	1.31	0.459	2.9
HCI-024, days in culture: 163	1.49	1.85	1.78	1.61	1.15	0.775	0.456	2
HCI-025, days in culture: 172	3.01	1.72	2.29	0.436	0.742	0.364	0.195	2.47
HCI-025, days in culture: 209	2.06	2.11	1.83	0.884	0.873	0.449	0.155	1.79
HCI-025, days in culture: 218	1.86	2.09	1.77	0.5	0.362	0.365	0.143	1.79

NC(=O)c1cccc2cn(-c3ccc([C@@H]4CCCNC4)cc3)nc12 [niraparib]
CTG-3D luminescence at 96 h
Conditions	12.5 pM	0.00025 µM	0.005 µM	0.1 µM	1 µM	10 µM	100 µM	625 fM
HCI-002, days in culture: 62	3.51	3	3.42	2.62	1.36	0.533	-0.0877	3.34
HCI-002, days in culture: 82	3.5	3.51	2.69	2.16	1.29	0.381	-0.026	2.77
HCI-002, days in culture: 91	2.87	2.3	1.8	1.74	1.11	0.377	-0.0114	2.66
HCI-002, days in culture: 191	3.37	2.98	3.35	2.51	1.99	0.811	-0.139	3.21
HCI-002, days in culture: 209	2.84	2.96	2.54	1.96	1.18	0.302	-0.0818	2.86
HCI-002, days in culture: 227	4.63	5.21	4.64	3.79	2.08	0.87	-0.0133	5.51
HCI-012, days in culture: 143	2.27	2.44	2.4	2.56	1.52	0.467	-0.00164	1.73
HCI-012, days in culture: 162	2.37	2.45	2.2	2.6	0.841	0.415	-0.00213	3.12
HCI-012, days in culture: 201	3.14	2.4	1.89	1.81	1.95	0.307	-0.207	1.71
HCI-023, days in culture: 111	1.92	1.44	1.58	1.16	0.886	0.393	-0.00664	1.85
HCI-023, days in culture: 128	1.57	1.57	1.61	1.42	0.892	0.695	0.00157	1.67
HCI-024, days in culture: 105	1.48	1.61	1.14	1.43	1.44	1.27	0.00247	1.56
HCI-024, days in culture: 122	2.12	2.38	2.08	1.71	1.88	1.29	0.00108	2.15
HCI-024, days in culture: 163	1.73	1.86	1.82	2.37	1.78	1.17	0.00351	2.44
HCI-025, days in culture: 172	2.92	1.82	3.92	2.04	2.08	0.426	-0.311	2.26
HCI-025, days in culture: 209	1.9	2.67	2.31	1.69	1.9	0.545	-0.0263	1.59
HCI-025, days in culture: 218	1.38	1.94	1.97	1.83	1.03	0.271	-0.304	1.62
